Data taken from US6685913B1, “Lipid soluble radioactive metal chelates for tumor therapy” (Thomas Jefferson University, priority 1999, dated 2004).
Entries after “also recorded” stand apart in the source; their conditions may differ.

Tests used:
[1] = test system: human colorectal carcinoma cells LS174T; settings: single intratumoral injection, day 22, control tumor 3.2 cm
Method: Tumors were allowed to grow to approximately 0.5 cm in diameter.
On day one, two of the four tumor-bearing mice received a single intratumoral injection of approximately 100 μl Indium-111-oxine. Mice were placed in an ionization chamber, and radioactivity was recorded after the injection and then daily for 28 days. On each day, radioactivity was corrected for decay, and the percent of injected dose retained in the animal was calculated and recorded. Animals were also weighed daily in a calibrated balance.
On day one, all four mice were lightly anesthetized and photographs taken. Mice receiving Indium-111-oxine were also imaged with a gamma camera 28 days later. This qualitatively recorded the distribution of radioactivity, 28 days after it was injected.The control animals received a single intratumoral injection of 100 μl of 25% ethanol in 0.9% NaCl. Two radioactive animals and the control animals were then cared for in two separated cages and allowed to eat and drink at liberty.
On day 22, the two mice treated with Indium-111-oxine received 100 μl of Indium-111-Merc each in two places in tumors. The control animals also received two intratumoral injection of 0.05 M phosphate buffer pH−7.4.
As before, the mice were weighed daily and radioactivity remaining in their bodies was measured for an additional 10 days.

[2] = Retention of radioactivity after intratumoral injection, first study (gamma camera, ionization chamber); assay type: in vivo, athymic nude mice
cells = settings: cited from earlier work
[3] = Body weight, additional studies; assay type: in vivo, nude mice; settings: treatment period
Method: Human prostate and human breast tumors were grown in two separate groups of nude mice. Six mice in each group were divided in two subgroups of 3 mice each. Three mice were treated with intratumoral injections of either Indium-111-oxine or Indium-111-Merc. Each group of mice was then placed in rodent cages separately and cared for with regular diet and water ad lib. Each day the animals were weighed, and tumor diameter was measured three times with a Vernier caliper.

[4] = test system: human prostate cancer cells DU145; settings: one month
Method: Additional feasibility studies were performed using two lipid soluble agents, Indium-111-oxine and Indium-111-Mercaptopyridine-N-oxide (Merc). Human prostate and human breast tumors were grown in two separate groups of nude mice. Six mice in each group were divided in two subgroups of 3 mice each. Three mice were treated with intratumoral injections of either Indium-111-oxine or Indium-111-Merc. Each group of mice was then placed in rodent cages separately and cared for with regular diet and water ad lib. Each day the animals were weighed, and tumor diameter was measured three times with a Vernier caliper.
Radioactivity received by each animal was carefully measured, and each day the amount of radioactivity retained in the animal body was measured using an energy calibrated radiation dose calibrator. Two weeks after the first injection, a second dose of the same agent was readministered, also intratumorally and the procedure was followed as described above, for the next two weeks. […] Indium-111 associated with each tissue was counted, and the radioactivity distributed in each organ was calculated as the percent of the total radioactivity retrained in each animal. Histology on critical organs, such as the liver, bladder, and kidney, as well as tumor histology, was assessed in treated animals and in untreated control animals. […]

[5] = Distribution of radioactivity in tumor and organs at sacrifice; assay type: in vivo, nude mice
From the text: (§1) These organs were then weighed.

[6] = test system: human breast cancer cells T47D; test: Intratumoral injection study on T47D tumor-bearing nude mice: tumor size; assay type: in vivo; settings: one month
Method: as §1
Indium-111-Merc was prepared also by a method described previously. (Thakur et al, J Nucl Med 26: 518-523, 1985). Briefly, to one ml 0.067 M phosphate buffer pH 7.4, a required quantity of Indium-111-chloride was added followed by 50 μg Merc in 50 μl 0.067 M phosphate buffer pH 7.4. The reaction mixture was vortexed, and resultant Indium-111-Merc was extracted in chloroform or methylene chloride. This was evaporated to dryness, and the complex was taken up in 50 μl ethanol and 150 μl 0.9% NaCl. A known amount of radioactivity in 50 μl was then injected directly into the tumor in each mouse.
For treatment with Indium-111-Merc, human breast cancer cells (5×10^6) T47D were implanted similarly. These were also allowed to grow to up to 0.5 cm in diameter.

[7] = cited from earlier work

Compound | tumor growth in treated animal [1] | radioactivity retained in the tumor (gamma camera image) ([2]; 22 days after intratumoral Indium-111-oxine injection) | labeling of cells in the presence of plasma (cells) | body weight change ([3]; DU145 tumor-bearing mice, on the average) | tumor growth in treated mice (tumor size versus time, FIG. 4) ([4]; DU145 tumor-bearing nude mice) | average tumor growth during the treatment period ([4]; DU145 tumors, two intratumoral doses two weeks apart, untreated mice 200%) | kidney uptake at sacrifice ([5]; DU145 tumor-bearing mice) | liver uptake at sacrifice ([5]; DU145 tumor-bearing mice) | injected activity retained in tumor at sacrifice ([5]; DU145 tumor-bearing mice, corrected for decay) | tumor growth in treated mice (tumor size versus time, FIG. 5) ([6]; T47D tumor-bearing nude mice) | average tumor growth in the treated mice ([6]; T47D tumors, two intratumoral doses two weeks apart, untreated controls 477%) | stability in plasma [7] | radioactivity still in the tumor (gamma camera image) ([2]; 10 days after intratumoral Indium-111-Merc injection) | radioactivity retained in animal body ([2]; ten days after the injection of Indium-111-Merc) | body weight change ([3]; T47D tumor-bearing mice) | injected activity retained in tumor at sacrifice ([5]; T47D tumor-bearing mice) | kidney activity at sacrifice ([5]; T47D tumor-bearing mice) | liver activity at sacrifice ([5]; T47D tumor-bearing mice)
[111In+3].[O-]c1cccc2cccnc12.[O-]c1cccc2cccnc12.[O-]c1cccc2cccnc12 [Indium-111-oxine, Indium-111-oxine (8-hydroxyquinoline)] | has not grown | a major proportion; also recorded: nearly all | not capable of binding cells in plasma; also recorded: cannot efficiently label cells | none of the treated or untreated mice either gained or lost body weight | arrested | 117% | 7.5% | 5.4% | 86.5% | – | – | – | – | – | – | – | – | –
Indium-111-Merc (2-Mercaptopyridine-N-oxide) | – | – | can label cells in the presence of plasma | – | – | – | – | – | – | arrested | 172% | does not break down in plasma | a major proportion | all | gained some body weight | 92.97% | 4.03% | 1.02%
